Measured values: PubChem BioAssay AID1963861 (Molecular Pharmacology Branch, DTP, NCI, 2024)

Test system: 885724-159-R-J1-PDC KRAS PDC multicell spheroid viability
Test: Anticancer human tumor 885724-159-R-J1-PDC patient-derived pancreatic adenocarcinoma cell line growth inhibition [KRAS2]
Conditions: for IC50: curve of first compound; for viability, T/C: stronger effect = lower value
In short: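 KRAS-mutant tumor cells were grown as spheroids with HUVEC endothelial cells and human MSCs as stroma. Targeted agents were tested alone and with KRAS pathway inhibitors. Doses started at or near clinical Cmax, or 10 microM, descending half-log.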

[1] = second compound 0.1 µM, first compound 0.01 µM
[2] = second compound 0.1 µM, first compound 0.0316 µM
[3] = second compound 0.1 µM, first compound 0.1 µM
[4] = second compound 0.1 µM, first compound 0.316 µM
[5] = second compound 0.1 µM, first compound 1 µM
[6] = second compound 0.1 µM, first compound 3.16 µM
[7] = second compound 0.316 µM, first compound 0.01 µM
[8] = second compound 0.316 µM, first compound 0.0316 µM
[9] = second compound 0.316 µM, first compound 0.1 µM
[10] = second compound 0.316 µM, first compound 0.316 µM
[11] = second compound 0.316 µM, first compound 1 µM
[12] = second compound 0.316 µM, first compound 3.16 µM
[13] = second compound 1 µM, first compound 0.01 µM
[14] = second compound 1 µM, first compound 0.0316 µM
[15] = second compound 1 µM, first compound 0.1 µM
[16] = second compound 1 µM, first compound 0.316 µM
[17] = second compound 1 µM, first compound 1 µM
[18] = second compound 1 µM, first compound 3.16 µM
[19] = second compound 3.16 µM, first compound 0.01 µM
[20] = second compound 3.16 µM, first compound 0.0316 µM
[21] = second compound 3.16 µM, first compound 0.1 µM
[22] = second compound 3.16 µM, first compound 0.316 µM
[23] = second compound 3.16 µM, first compound 1 µM
[24] = second compound 3.16 µM, first compound 3.16 µM
[25] = second compound 0.0316 µM, first compound 0.01 µM
[26] = second compound 0.0316 µM, first compound 0.0316 µM
[27] = second compound 0.0316 µM, first compound 0.1 µM
[28] = second compound 0.0316 µM, first compound 0.316 µM
[29] = second compound 0.0316 µM, first compound 1 µM
[30] = second compound 0.0316 µM, first compound 3.16 µM
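Also: spheroids exposed to agents for 7 days before readout.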

`CC1COCCN1c1cc(-c2ccnn2C)c2ccnc(-c3ccn[nH]3)c2n1` (stereo not given) + C=CC(=O)N1CCN(c2nc(=O)n(-c3c(C)ccnc3C(C)C)c3nc(-c4c(O)cccc4F)c(F)cc23)C(C)C1 was tested, and the IC50 (second compound 0.1 µM) was > 3.16 µM, the IC50 (second compound 0.316 µM) was 2.78 µM and the IC50 (second compound 1 µM) was 2.41 µM. For the same compound, the IC50 (second compound 3.16 µM) was > 3.16 µM, the IC50 (second compound 10 µM) was 0.222 µM and the viability, T/C [1] was 111%. For the same compound, the viability, T/C [2] was 92.4%, the viability, T/C [3] was 69.2% and the viability, T/C [4] was 56.2%. The viability, T/C [5] was 49.2%, the viability, T/C [6] was 55.2% and the viability, T/C [7] was 104%. For the same compound, the viability, T/C [8] was 84.6%, the viability, T/C [9] was 68.2% and the viability, T/C [10] was 58.3%. The viability, T/C [11] was 49%, the viability, T/C [12] was 51.5% and the viability, T/C [13] was 106%. The viability, T/C [14] was 83.8%, the viability, T/C [15] was 66.9% and the viability, T/C [16] was 60.2%. For the same compound, the viability, T/C [17] was 47.8%, the viability, T/C [18] was 51.4% and the viability, T/C [19] was 93.7%. For the same compound, the viability, T/C [20] was 92.1%, the viability, T/C [21] was 66.2% and the viability, T/C [22] was 58.9%. It also gave a viability, T/C [23] of 49.4%, a viability, T/C [24] of 54.1% and a viability, T/C (second compound 10 µM, first compound 0.01 µM) of 71.7%. For the same compound, the viability, T/C (second compound 10 µM, first compound 0.0316 µM) was 65.7%, the viability, T/C (second compound 10 µM, first compound 0.1 µM) was 55.9% and the viability, T/C (second compound 10 µM, first compound 0.316 µM) was 46.7%. It also gave a viability, T/C (second compound 10 µM, first compound 1 µM) of 45.6% and a viability, T/C (second compound 10 µM, first compound 3.16 µM) of 42.7%.
In the case of `CC(=O)OC12COC1CC(O)C1(C)C(=O)C(O)C3=C(C)C(OC(=O)C(O)C(NC(=O)OC(C)(C)C)c4ccccc4)CC(O)(C(OC(=O)c4ccccc4)C21)C3(C)C` (stereo not given) + C=CC(=O)N1CCN(c2nc(OCC3CCCN3C)nc3c2CCN(c2cccc4cccc(C)c24)C3)CC1CC#N, the IC50 (second compound 0.0316 µM) is reported as > 3.16 µM, the IC50 (second compound 0.1 µM) is reported as > 3.16 µM and the IC50 (second compound 0.316 µM) is reported as > 3.16 µM. For the same compound, the IC50 (second compound 1 µM) was > 3.16 µM, the IC50 (second compound 3.16 µM) was > 3.16 µM and the viability, T/C [25] was 86.9%. For the same compound, the viability, T/C [26] was 95.8%, the viability, T/C [27] was 102% and the viability, T/C [28] was 101%. It also gave a viability, T/C [29] of 110%, a viability, T/C [30] of 109% and a viability, T/C [1] of 87.5%. For the same compound, the viability, T/C [2] was 94.9%, the viability, T/C [3] was 97% and the viability, T/C [4] was 106%. For the same compound, the viability, T/C [5] was 116%, the viability, T/C [6] was 115% and the viability, T/C [7] was 85.5%. For the same compound, the viability, T/C [8] was 97.5%, the viability, T/C [9] was 92.8% and the viability, T/C [10] was 101%. It also gave a viability, T/C [11] of 115%, a viability, T/C [12] of 103% and a viability, T/C [13] of 82.6%. For the same compound, the viability, T/C [14] was 86.9%, the viability, T/C [15] was 91.8% and the viability, T/C [16] was 96.7%. The viability, T/C [17] was 99.2%, the viability, T/C [18] was 96.7% and the viability, T/C [19] was 87.2%. The viability, T/C [20] was 100%, the viability, T/C [21] was 99.6% and the viability, T/C [22] was 105%. The viability, T/C [23] was 111% and the viability, T/C [24] was 115%.
With `CN(C)C/C=C/C(=O)Nc1cc2c(Nc3ccc(F)c(Cl)c3)ncnc2cc1O[C@H]1CCOC1` + C=CC(=O)N1CCN(c2nc(OCC3CCCN3C)nc3c2CCN(c2cccc4cccc(C)c24)C3)CC1CC#N the IC50 (second compound 0.0316 µM) was > 0.1 µM, the IC50 (second compound 0.1 µM) was > 0.1 µM and the IC50 (second compound 0.316 µM) was > 0.1 µM. The IC50 (second compound 1 µM) was > 0.1 µM, the IC50 (second compound 3.16 µM) was 0.00157 µM and the viability, T/C (second compound 0.0316 µM, first compound 0.000316 µM) was 116%. The viability, T/C (second compound 0.0316 µM, first compound 0.001 µM) was 112%, the viability, T/C (second compound 0.0316 µM, first compound 0.00316 µM) was 98.5% and the viability, T/C [25] was 94.5%. It also gave a viability, T/C [26] of 89.1%, a viability, T/C [27] of 80.3% and a viability, T/C (second compound 0.1 µM, first compound 0.000316 µM) of 109%. The viability, T/C (second compound 0.1 µM, first compound 0.001 µM) was 101%, the viability, T/C (second compound 0.1 µM, first compound 0.00316 µM) was 96.5% and the viability, T/C [1] was 83.1%. It also gave a viability, T/C [2] of 77.4%, a viability, T/C [3] of 72% and a viability, T/C (second compound 0.316 µM, first compound 0.000316 µM) of 105%. For the same compound, the viability, T/C (second compound 0.316 µM, first compound 0.001 µM) was 106%, the viability, T/C (second compound 0.316 µM, first compound 0.00316 µM) was 92.4% and the viability, T/C [7] was 84.1%. For the same compound, the viability, T/C [8] was 72%, the viability, T/C [9] was 65.7% and the viability, T/C (second compound 1 µM, first compound 0.000316 µM) was 95%. It also gave a viability, T/C (second compound 1 µM, first compound 0.001 µM) of 100%, a viability, T/C (second compound 1 µM, first compound 0.00316 µM) of 86.8% and a viability, T/C [13] of 78.4%. It also gave a viability, T/C [14] of 68.7%, a viability, T/C [15] of 63.9% and a viability, T/C (second compound 3.16 µM, first compound 0.000316 µM) of 61.5%. For the same compound, the viability, T/C (second compound 3.16 µM, first compound 0.001 µM) was 55.9%, the viability, T/C (second compound 3.16 µM, first compound 0.00316 µM) was 40.8% and the viability, T/C [19] was 37.7%. The viability, T/C [20] was 36.4% and the viability, T/C [21] was 37.7%.
With `O=C(c1cc(Cc2n[nH]c(=O)c3ccccc23)ccc1F)N1CCN(C(=O)C2CC2)CC1` + C=CC(=O)N1CCN(c2nc(OCC3CCCN3C)nc3c2CCN(c2cccc4cccc(C)c24)C3)CC1CC#N the IC50 (second compound 0.0316 µM) was > 10 µM, the IC50 (second compound 0.1 µM) was > 10 µM and the IC50 (second compound 0.316 µM) was > 10 µM. The IC50 (second compound 1 µM) was > 10 µM, the IC50 (second compound 3.16 µM) was 4.94 µM and the viability, T/C [26] was 127%. It also gave a viability, T/C [27] of 120%, a viability, T/C [28] of 119% and a viability, T/C [29] of 119%. For the same compound, the viability, T/C [30] was 112%, the viability, T/C (second compound 0.0316 µM, first compound 10 µM) was 96.7% and the viability, T/C [2] was 122%. The viability, T/C [3] was 118%, the viability, T/C [4] was 117% and the viability, T/C [5] was 109%. The viability, T/C [6] was 104%, the viability, T/C (second compound 0.1 µM, first compound 10 µM) was 93% and the viability, T/C [8] was 111%. It also gave a viability, T/C [9] of 115%, a viability, T/C [10] of 113% and a viability, T/C [11] of 108%. The viability, T/C [12] was 99%, the viability, T/C (second compound 0.316 µM, first compound 10 µM) was 101% and the viability, T/C [14] was 112%. For the same compound, the viability, T/C [15] was 116%, the viability, T/C [16] was 106% and the viability, T/C [17] was 108%. It also gave a viability, T/C [18] of 108%, a viability, T/C (second compound 1 µM, first compound 10 µM) of 89% and a viability, T/C [20] of 66.9%. The viability, T/C [21] was 65%, the viability, T/C [22] was 60.5% and the viability, T/C [23] was 58%. The viability, T/C [24] was 58.3% and the viability, T/C (second compound 3.16 µM, first compound 10 µM) was 40.8%.
